We go through 92 molecules from PubChem BioAssay AID743267 (Broad Institute, 2014).

For orientation: AC50 means the concentration at which the activity in the assay is half-maximal. High values mean activity only at high concentration, low ones activity at low concentration.

One test deals with human bronchial epithelial cells, CFTR corrector, plate reader. Put plainly: CFTR ΔF508 corrector activity in bronchial cells, dose response, human bronchial epithelial cells, plate reader, cherry-pick, two tests (AID 743267). Particulars: measured here: test 1 replicate run.
`COc1ccc(S(=O)(=O)N2CC[C@@H]3[C@@H](CO)Nc4ccc(-c5ccc(C#N)cc5)cc4[C@@H]32)cc1` registered an AC50 of 1.57 µM.
Same read-out and setting: for `CO[C@@H](CN(C)S(=O)(=O)c1ccc(C)cc1)[C@H](C)CN([C@@H](C)CO)S(=O)(=O)c1cccc(Cl)c1` the value was 5.49 µM; for `C[C@H](CO)N1C[C@H](C)[C@@H](CN(C)Cc2ccc(Cl)c(Cl)c2)Oc2ccc(NC(=O)Nc3ccc(C(F)(F)F)cc3)cc2CC1=O`, 16 µM; for `COc1ccc(-c2ccc3c(c2)[C@H]2[C@H](CCN2S(=O)(=O)c2ccc(OC)cc2)[C@@H](CO)N3)cc1`, 7.37 µM.
Still for that read-out and setting: as for `C[C@@H]1CN([C@H](C)CO)C(=O)c2cc(NS(=O)(=O)c3ccc(Cl)cc3)ccc2O[C@@H]1CN(C)Cc1ccc(-c2ccccc2)cc1`, the figure is 46.3 µM.
In turn, `COc1cccc(-c2cccc(-c3nc(C(=O)NCC(F)(F)F)cc4c3[C@H](CCO)N([S@@](=O)C(C)(C)C)C4)c2)c1` showed a half-maximal activity concentration (AC50) of 2.75 µM.

The test is the same for the next values; noted with them: measured here: test 2 replicate run.
`CCC1(C)OC(c2ccccc2)=C/C(=C/C=C2C(=O)NC(=O)NC2=O)O1` (configuration not stated) came in with an AC50 of 38.7 µM.
As for `O=[N+]([O-])c1ccc(/C=C/C2=NN(c3ccccc3)C(c3ccco3)C2)o1` (configuration not stated), the AC50 worked out at 18.1 µM.
In turn, `O=S(=O)(c1ccc(Br)cc1)N1CCCc2ccccc21` yielded an AC50 greater than 50 µM.
Still for that read-out and setting: as for `COc1ccc(C(=O)c2cc([N+](=O)[O-])ccc2N2CCN(C)CC2)cc1`, the figure is 3.74 µM; as for `Cc1ccc(C(=O)N/N=C/c2cc(Br)ccc2O)cn1`, 0.672 µM.
The same measure, in the same setting: for `CCOC(=O)C1CCCN(c2ccc([N+](=O)[O-])c3nonc23)C1` (configuration not stated) the value was 20.7 µM; for `CN1/C(=C\C=C2/SC(=S)N(CC(=O)O)C2=O)C(C)(C)c2ccccc21`, 16 µM.
Same read-out and setting: for `CCN1/C(=C\c2ccc3cc(C)ccc3[n+]2CC)Sc2cc(C)c(C)cc21` the value was 9.9 µM; for `Cc1ccc(-c2csc(Nc3ccccn3)n2)cc1`, 26.4 µM.
As to `COc1ccc(NCC(=O)n2c(C)c(C)c3ccccc32)cc1`, the AC50 stood at 5.59 µM.
On to `CC1(C(=O)NCc2ccco2)Cc2c(-c3ccc4c(c3)OCO4)ccnc2O1` (configuration not stated), for which the half-maximal activity concentration (AC50) came out at 1.88 µM.
Regarding `CCOC(=O)CSC1=C(C#N)C(c2ccc(C)s2)CC(=O)N1` (configuration not stated), the concentration at half-maximal activity (AC50) was 5.6 µM.
The same measure, in the same setting: as for `COc1nc(C)nc(NC(=O)NS(=O)(=O)c2ccccc2Cl)n1`, the figure is greater than 50 µM.
Still for that read-out and setting: for `Cc1ccc(N(C)S(=O)(=O)c2ccc(-c3cnc(C4CC4)o3)cc2)cc1` the value was 1.17 µM.
In the case of `CCC1=Nc2cc(C(=O)NCC3CCCO3)ccc2Sc2ccc(Cl)cc21` (configuration not stated), the AC50 stood at 7.26 µM.
The same measure, in the same setting: for `CCOc1ccccc1N1CCN(C(=O)c2cc3ccccc3cc2OC)CC1` the value was 3.45 µM; for `Cn1cccc1/C=C1\SC(=Nc2ccc(O)cc2)NC1=O`, 0.315 µM.
The molecule `COC1C(C)OC(OC2CC(C)(O)Cc3cc4c(c(O)c32)C(=O)c2c(O)cc3c(c2C4=O)OC2OC3(C)C(O)C(N(C)C)C2O)C(OC)C1(C)OC` (configuration not stated) registered an AC50 of 14.3 µM.
Still for that read-out and setting: for `CN1C(=O)c2cccc3c(N)ccc(c23)C1=O` the value was 18.3 µM.
Molecule `Brc1ccc2c(c1)C(C1=NCCN1)c1ccccc1CS2` (configuration not stated) came in with an AC50 of 16 µM.
`Cc1cc(Nc2ccc(Br)cc2)nc2ccccc12` yielded an AC50 of 21.1 µM.
Same read-out and setting: as for `Cc1ccnc2c1ccc1cccnc12`, the figure is 18.3 µM.
Consider `CCOC(=O)c1c(C)[nH]c(C(=O)N/N=C\c2ccccc2O)c1C`, for which the AC50 was 3.36 µM.
The molecule `Cc1cccc(OCCNC(=O)c2ccc(Cl)c(S(=O)(=O)NCc3cccnc3)c2)c1` registered an AC50 of 1.97 µM.
The same measure, in the same setting: as for `Cc1cccc(N2CCN(C(=O)c3c(-c4ccccc4)noc3C)CC2)c1C`, the figure is 2.59 µM; as for `CCc1cc(-c2nnn(CCC3COCCO3)c2CC)ccc1-c1cn(Cc2ccc3ccccc3c2)nn1` (configuration not stated), 0.6 µM.
Turning to `COC(=O)CSC1=C(C#N)C(c2ccc(C)o2)CC(=O)N1` (configuration not stated), the AC50 amounted to 8.06 µM.
Still for that read-out and setting: for `Cc1ccc(CNC(=O)c2ccc3c(=O)c(O)c(-c4ccc(C)cc4)[nH]c3c2)cc1` the value was 4.24 µM; for `COc1cc(-c2noc(C)c2C#Cc2ccsc2)cc(OC)c1OC`, 0.537 µM; for `COc1ccc([N+](=O)[O-])cc1Nc1c2ccccc2nc2ccccc12`, 2.62 µM.
The same measure, in the same setting: as for `O=C(c1ccc(Br)cc1)c1cc([N+](=O)[O-])ccc1N1CCOCC1`, the figure is 1.69 µM.
Still for that read-out and setting: for `COCOc1cccc(CN2CCC2(C)C(=O)Nc2ccc(C)c(O)c2)c1` (configuration not stated) the value was greater than 50 µM.
On to `COc1ccc(C2CN=NC23CCc2ccccc2C3=O)cc1` (configuration not stated), for which the AC50 was 38.9 µM.
Molecule `Cc1ccnc(N2C(=O)c3cccc4c([N+](=O)[O-])ccc(c34)C2=O)c1` displayed an AC50 of 6.5 µM.
On the same count and under the same terms, as for `COC(=O)c1cn(NC(=O)c2cc([N+](=O)[O-])ccc2F)c(=O)c2ccccc12`, the figure is 1.21 µM; as for `COc1cc(C(=O)OCCc2cc3ccccc3c(=O)o2)cc(OC)c1OC`, 1.59 µM; as for `COc1ccccc1/C=C/C=N/NC(=O)CCn1cnc2ccccc21`, 8.01 µM.
On the same count and under the same terms, for `CC1=C/C(=C\C=C(C#N)C#N)N(C)c2ccccc21` the value was 12.9 µM; for `COc1ccccc1N1CC(C(=O)Nc2ccc(S(=O)(=O)N3CCCC3)cc2)CC1=O` (configuration not stated), 10.6 µM; for `Cc1ccc(C2(C)NC(=O)N(CC(=O)Nc3nc(-c4ccccn4)cs3)C2=O)cc1` (configuration not stated), 4.23 µM.
Same read-out and setting: as for `c1ccc2c(c1)C1=NCCN1c1ccccc1-2`, the figure is 2.93 µM; as for `O=C1c2cccc3c(O)ccc(c23)C(=O)N1Cc1ccco1`, 13.3 µM.
Consider `COc1ccc(S(=O)(=O)Cc2ccc(C(=O)N3CCN(c4cccc(C)c4)C(C)C3)o2)cc1` (configuration not stated), for which the AC50 worked out at 3.68 µM.
The same measure, in the same setting: for `CC(=Nc1ccccc1O)c1sc2ccccc2c1O` the value was 11.8 µM; for `COc1ccccc1C(=O)Nc1ccc2c(c1)nc(CCNC(=O)c1ccco1)n2C`, 5.48 µM.
Same read-out and setting: as for `Cc1ncc(CO)c(/C=N/Nc2ccc(C(F)(F)F)cn2)c1O`, the figure is 1.18 µM.
The same measure, in the same setting: for `COc1cc(-c2cnc3c(NC=O)cc(-c4cccc(C(F)(F)F)c4)cn23)cc(OC)c1OC` the value was 7.05 µM.
`COc1ccc(S(=O)(=O)N2CCN(CCOc3ccccc3Cl)CC2)cc1OC` returned an AC50 of 38.7 µM.
Take `Cc1cc(C(=O)CCC(=O)NC(C)c2ccc(S(N)(=O)=O)cc2)c(C)s1` (configuration not stated): the concentration at half-maximal activity (AC50) is greater than 50 µM.
`COC(=O)C1=CN(c2ccc3c(c2)OCO3)C(N)=C(C#N)C1c1cccc(F)c1` (configuration not stated) returned an AC50 of 1.55 µM.
Same read-out and setting: as for `COc1ccc(OC)c(Nc2nc(-c3sc(NC(=O)C(C)(C)C)nc3C)cs2)c1`, the figure is 2.78 µM; as for `COc1ccc(S(=O)(=O)Nc2cccc3ccc(O)cc23)cc1`, 6.82 µM; as for `COc1ccc(/C=C2\SC(=O)N(CCNC(=O)C3=COCCO3)C2=O)cc1`, 1.84 µM.
The molecule `c1ccc2nc(N3CCNCC3)ccc2c1` returned an AC50 greater than 50 µM.
`CCc1ccccc1N(C)S(=O)(=O)c1ccc(-c2cc(C)no2)s1` had a half-maximal activity concentration (AC50) of 6.87 µM.
Turning to `O=C(NCCOc1ccccc1F)c1cc([N+](=O)[O-])ccc1N1CCOCC1`, the concentration at half-maximal activity (AC50) came to 5.95 µM.
Take `CCSc1nnc(N2C(=O)C(O)=C(C(=O)c3ccco3)C2c2cccc(OC)c2)s1` (configuration not stated): the AC50 is greater than 50 µM.
For the molecule `CCOc1ccc(NC(=O)c2cc(OC)nc3ccccc23)cc1`, the AC50 turned out to be 1.7 µM.
Still for that read-out and setting: for `O=Nc1ccc(O)c2ncccc12` the value was 3.57 µM; for `COc1cc(C(=O)Nc2ccc3c(c2)ncn3C)cc(OC)c1OC`, 3.9 µM; for `COc1ccc([C@H]2C[C@H](O)[C@@H](n3cc(-c4ccc(F)cc4)nn3)CN2Cc2cccs2)cc1`, 16 µM.
As to `CC(=O)Nc1ccc(-c2csc(NC(=O)CN3C(=O)NC4(CCCC4)C3=O)n2)cc1`, the concentration at half-maximal activity (AC50) was greater than 50 µM.
`CC(=O)Nc1cccc(-c2ccnc3c2CC(C)(C(=O)Nc2ccc4c(c2)OCO4)O3)c1` (configuration not stated) yielded an AC50 of 0.973 µM.
Same read-out and setting: as for `COc1ccccc1NS(=O)(=O)c1cc(-c2cnc(C3CC3)o2)ccc1C`, the figure is 9.51 µM.
In the case of `COc1ccccc1Nc1c2c(nc3ccccc13)CCC2`, the AC50 was found to be 6.89 µM.
On the same count and under the same terms, as for `CCCCN1C(=O)/C(=C/C=C2\Oc3ccccc3N2CC)SC1=S`, the figure is 9.56 µM.
Still for that read-out and setting: for `Cc1ccc2c(c1)CCCN2C(=O)CCc1nc2ccccc2c(=O)[nH]1` the value was 5.42 µM.
In turn, `COc1ccc(-c2ccnc(-c3ccc(O)cc3)n2)cc1` returned an AC50 of 1.43 µM.
The same measure, in the same setting: as for `O=C(N/N=C/c1c(O)ccc2ccccc12)C(=O)N1CCCC1`, the figure is 12.6 µM; as for `COc1cccc2c1C(=O)c1c(O)c3c(c(O)c1C2=O)CC(O)(C(=O)CO)CC3OC1CC(N(C)C)C(O)C(C)O1` (configuration not stated), 10.1 µM; as for `CC(=O)O[C@H]1C(=O)[C@]2(C)[C@H]([C@H](OC(=O)c3ccccc3)[C@]3(O)C[C@H](OC(=O)[C@H](O)[C@@H](NC(=O)c4ccccc4)c4ccccc4)C(C)=C1C3(C)C)[C@]1(OC(C)=O)CO[C@@H]1C[C@@H]2O`, 0.339 µM.
Consider `Cn1c(CC(=O)NN)c(Sc2ccccc2)c2ccccc21`, for which the AC50 is greater than 50 µM.
`COc1cccc(N2CCN(C(=O)c3ccc(CS(=O)c4ccc(C)cc4)o3)CC2)c1` (configuration not stated): the AC50 worked out at 0.539 µM.
In the case of `COc1cc(OC)c2c(-c3cccc(-c4cccc(N)c4)c3)cc(=O)oc2c1`, the AC50 was found to be 3.43 µM.
Still for that read-out and setting: for `CN(C)CCNC(=O)c1ccc(Cl)c2cc3ccccc3nc12` the value was 5.35 µM; for `Cc1cccc2c(N=Nc3ccc(S(=O)(=O)Nc4ccc(Cl)cc4)cc3[N+](=O)[O-])c(O)[nH]c12`, greater than 50 µM.
Same read-out and setting: as for `COc1cc(OC)cc(C(=O)N[C@H](C(=O)Nc2nc3ccccc3[nH]2)C(C)C)c1`, the figure is 2.34 µM.
In turn, `CC1=NCCc2c1[nH]c1cc(O)ccc21` came in with an AC50 of 41.4 µM.
Same read-out and setting: for `COc1ccc(C2=NOC(C(=O)NCc3ccccc3)C2)cc1` (configuration not stated) the value was 2.42 µM; for `COc1cc(SC)ccc1C(=O)N1CCN(c2ccccc2OC)CC1`, 6.62 µM; for `CN(CC(=O)NCCc1ccc(S(N)(=O)=O)cc1)CC(=O)Nc1ccc(Cl)c(C(F)(F)F)c1`, 27.9 µM.
`N#CC1c2ccccc2-c2ccccc2N1C(=O)c1ccccc1` (configuration not stated) had an AC50 of 4.85 µM.
On the same count and under the same terms, as for `NS(=O)(=O)c1ccc(Cl)c(S(N)(=O)=O)c1`, the figure is 1.16 µM; as for `COc1cccc(Sc2ccccc2/C=N/NC(N)=O)c1`, 41.6 µM.
On the same count and under the same terms, as for `Cc1ccc(N2CC(C(=O)N(C)CC(=O)Nc3ccc(Cl)c(C(F)(F)F)c3)CC2=O)cc1` (configuration not stated), the figure is 33.3 µM.
Same read-out and setting: for `COc1cc(NC(=O)c2csc(N)n2)cc(C(=O)Nc2cccc(C(F)(F)F)c2)c1` the value was 16 µM.
